In ChEMBL document CHEMBL1649156, “Antianaerobic activity of sulopenem compared to six other agents” (2009):
Values after ≈ are worked out from the molar mass of the structure shown.

Tests used:
Type in all cases: functional
[1] = test system: Parabacteroides distasonis; test: Antimicrobial activity in Bacteroides distasonis by CLSI agar dilution method
[2] = test system: Fusobacterium necrophorum; test: Antimicrobial activity in Fusobacterium necrophorum by CLSI agar dilution method
[3] = test system: Prevotella melaninogenica; test: Antimicrobial activity in Prevotella melaninogenica by CLSI agar dilution method
[4] = test system: Clostridium cadaveris; test: Antimicrobial activity in Clostridium cadaveris by CLSI agar dilution method
[5] = test system: Bacteroides fragilis; test: Antimicrobial activity in Bacteroides fragilis by CLSI agar dilution method
[6] = test system: Porphyromonas gingivalis; test: Antimicrobial activity in Porphyromonas gingivalis by CLSI agar dilution method
[7] = test system: Eggerthella lenta; test: Antimicrobial activity in Eggerthella lenta by CLSI agar dilution method
[8] = test system: Fusobacterium mortiferum; test: Antimicrobial activity in Fusobacterium mortiferum by CLSI agar dilution method
[9] = test system: Bacteroides ovatus; test: Antimicrobial activity in Bacteroides ovatus by CLSI agar dilution method
[10] = test system: Prevotella bivia; test: Antimicrobial activity in Prevotella bivia by CLSI agar dilution method
[11] = test system: Parvimonas micra; test: Antimicrobial activity in Micromonas micros by CLSI agar dilution method
[12] = test system: Phocaeicola vulgatus; test: Antimicrobial activity in Bacteroides vulgatus by CLSI agar dilution method
[13] = test system: Bacteroides thetaiotaomicron; test: Antimicrobial activity in Bacteroides thetaiotaomicron by CLSI agar dilution method
[14] = test system: Clostridium perfringens; test: Antimicrobial activity in Clostridium perfringens by CLSI agar dilution method
[15] = test system: Actinomyces; test: Antimicrobial activity in Actinomyces by CLSI agar dilution method
[16] = test system: Clostridioides difficile; test: Antimicrobial activity in Clostridium difficile by CLSI agar dilution method
[17] = test system: Prevotella nigrescens; test: Antimicrobial activity in Prevotella nigrescens by CLSI agar dilution method
[18] = test system: Prevotella salivae; test: Antimicrobial activity in Prevotella salivae by CLSI agar dilution method; details: Segatella salivae
[19] = test system: Prevotella bergensis; test: Antimicrobial activity in Prevotella bergensis by CLSI agar dilution method; details: Hallella bergensis
[20] = test system: Paraclostridium bifermentans; test: Antimicrobial activity in Clostridium bifermentans by CLSI agar dilution method
[21] = test system: Prevotella disiens; test: Antimicrobial activity in Prevotella disiens by CLSI agar dilution method
[22] = test system: [Clostridium] innocuum; test: Antimicrobial activity in Clostridium innocuum by CLSI agar dilution method
[23] = test system: Fusobacterium nucleatum; test: Antimicrobial activity in Fusobacterium nucleatum by CLSI agar dilution method
[24] = test system: Bacteroides stercoris; test: Antimicrobial activity in Bacteroides stercoris by CLSI agar dilution method
[25] = test system: Bacteroides thetaiotaomicron; test: Antimicrobial activity in Bacteroides thetaiotaomicron ATCC 29741 by CLSI agar dilution method
[26] = test system: Paeniclostridium sordellii; test: Antimicrobial activity in Clostridium sordellii by CLSI agar dilution method; details: Paraclostridium sordellii
[27] = test system: Prevotella veroralis; test: Antimicrobial activity in Prevotella veroralis by CLSI agar dilution method
[28] = test system: Finegoldia magna; test: Antimicrobial activity in Finegoldia magna by CLSI agar dilution method
[29] = test system: Porphyromonas asaccharolytica; test: Antimicrobial activity in Porphyromonas asaccharolytica by CLSI agar dilution method
[30] = test system: Bacteroides fragilis; test: Antimicrobial activity in Bacteroides fragilis ATCC 25285 by CLSI agar dilution method
[31] = test system: Thomasclavelia ramosa; test: Antimicrobial activity in Clostridium ramosum by CLSI agar dilution method
[32] = test system: Peptoniphilus asaccharolyticus; test: Antimicrobial activity in Peptoniphilus asaccharolyticus by CLSI agar dilution method
[33] = test system: Eggerthella lenta; test: Antimicrobial activity in Eggerthella lenta ATCC 43055 by CLSI agar dilution method
[34] = test system: Prevotella denticola; test: Antimicrobial activity in Prevotella denticola by CLSI agar dilution method
[35] = test system: Anaerococcus prevotii; test: Antimicrobial activity in Anaerococcus prevotii by CLSI agar dilution method
[36] = test system: Cutibacterium acnes; test: Antimicrobial activity in Propionibacterium acnes by CLSI agar dilution method
[37] = test system: Prevotella sp.; test: Antimicrobial activity in Prevotella sp.by CLSI agar dilution method
[38] = test system: Hoylesella loescheii; test: Antimicrobial activity in Prevotella loescheii by CLSI agar dilution method
[39] = test system: Clostridium butyricum; test: Antimicrobial activity in Clostridium butyricum by CLSI agar dilution method
[40] = test system: Fusobacterium varium; test: Antimicrobial activity in Fusobacterium varium by CLSI agar dilution method
[41] = test system: Enterocloster clostridioformis; test: Antimicrobial activity in Clostridium clostridioforme by CLSI agar dilution method
[42] = test system: Peptostreptococcus anaerobius; test: Antimicrobial activity in Peptostreptococcus anaerobius by CLSI agar dilution method
[43] = test system: Bacteroides uniformis; test: Antimicrobial activity in Bacteroides uniformis by CLSI agar dilution method
[44] = test system: Tissierella praeacuta; test: Antimicrobial activity in Clostridium hastiforme by CLSI agar dilution method
[45] = test system: Bifidobacterium; test: Antimicrobial activity in Bifidobacterium by CLSI agar dilution method
[46] = test system: Clostridium sp.; test: Antimicrobial activity in Clostridium sp. by CLSI agar dilution method
[47] = test system: Hoylesella oralis; test: Antimicrobial activity in Prevotella oralis group by CLSI agar dilution method
[48] = test system: Anaerococcus tetradius; test: Antimicrobial activity in Anaerococcus tetradius by CLSI agar dilution method
[49] = test system: Prevotella buccae; test: Antimicrobial activity in Prevotella buccae by CLSI agar dilution method; details: Segatella buccae
[50] = test system: Prevotella corporis; test: Antimicrobial activity in Prevotella corporis by CLSI agar dilution method
[51] = test system: Prevotella intermedia; test: Antimicrobial activity in Prevotella intermedia by CLSI agar dilution method
[52] = test system: Clostridium tertium; test: Antimicrobial activity in Clostridium tertium by CLSI agar dilution method
[53] = test system: Lactobacillus; test: Antimicrobial activity in Lactobacillus by CLSI agar dilution method
[54] = test system: Prevotella baroniae; test: Antimicrobial activity in Prevotella baroniae by CLSI agar dilution method; details: Segatella baroniae

## C[C@@H](O)[C@H]1C(=O)N2C(C(=O)O)=C(S[C@H]3CC[S@@+]([O-])C3)S[C@H]12 [SULOPENEM]
[1]
  MIC50: 0.5 µg/mL (≈ 1.43 µM)
  MIC90: 1 µg/mL (≈ 2.86 µM)
[2]
  MIC: ≤ 0.016 µg/mL
  MIC50: ≤ 0.016 µg/mL
[3]
  MIC50: 0.125 µg/mL (≈ 0.358 µM)
  MIC90: 0.25 µg/mL (≈ 0.715 µM)
[4]
  MIC: 0.25 µg/mL (≈ 0.715 µM)
[5]
  MIC50: 0.125 µg/mL (≈ 0.358 µM)
  MIC90: 0.5 µg/mL (≈ 1.43 µM)
[6]
  MIC: 0.03 µg/mL (≈ 0.0858 µM)
[7]
  MIC: 1 µg/mL (≈ 2.86 µM)
  MIC50: 1 µg/mL (≈ 2.86 µM)
  MIC90: 1 µg/mL (≈ 2.86 µM)
[8]
  MIC50: 0.5 µg/mL (≈ 1.43 µM)
  MIC90: 0.5 µg/mL (≈ 1.43 µM)
[9]
  MIC: 0.25 µg/mL (≈ 0.715 µM)
  MIC50: 0.25 µg/mL (≈ 0.715 µM)
  MIC90: 0.5 µg/mL (≈ 1.43 µM)
[10]
  MIC50: 0.125 µg/mL (≈ 0.358 µM)
  MIC90: 0.25 µg/mL (≈ 0.715 µM)
[11]
  MIC: 0.125 µg/mL (≈ 0.358 µM)
  MIC50: 0.125 µg/mL (≈ 0.358 µM)
  MIC90: 0.125 µg/mL (≈ 0.358 µM)
[12]
  MIC50: 0.5 µg/mL (≈ 1.43 µM)
  MIC90: 1 µg/mL (≈ 2.86 µM)
[13]
  MIC: 0.25 µg/mL (≈ 0.715 µM)
  MIC50: 0.25 µg/mL (≈ 0.715 µM)
  MIC90: 0.5 µg/mL (≈ 1.43 µM)
[14]
  MIC50: 0.125 µg/mL (≈ 0.358 µM)
  MIC90: 0.25 µg/mL (≈ 0.715 µM)
[15]
  MIC: 0.25 µg/mL (≈ 0.715 µM)
  MIC50: 0.5 µg/mL (≈ 1.43 µM)
[16]
  MIC: 2 µg/mL (≈ 5.72 µM)
  MIC50: 2 µg/mL (≈ 5.72 µM)
  MIC90: 4 µg/mL (≈ 11.4 µM)
[17]
  MIC50: 0.06 µg/mL (≈ 0.172 µM)
  MIC90: 0.125 µg/mL (≈ 0.358 µM)
[18]
  MIC: 0.06 µg/mL (≈ 0.172 µM)
[19]
  MIC: 0.125 µg/mL (≈ 0.358 µM)
[20]
  MIC: 0.5 µg/mL (≈ 1.43 µM)
[21]
  MIC: 0.03 µg/mL (≈ 0.0858 µM)
  MIC50: 0.125 µg/mL (≈ 0.358 µM)
[22]
  MIC: 0.25 µg/mL (≈ 0.715 µM)
[23]
  MIC: ≤ 0.016 µg/mL
  MIC50: ≤ 0.016 µg/mL
  MIC90: 0.03 µg/mL (≈ 0.0858 µM)
[24]
  MIC: 0.25 µg/mL (≈ 0.715 µM)
  MIC50: 0.25 µg/mL (≈ 0.715 µM)
[25]
  MIC: 0.06 µg/mL (≈ 0.172 µM)
[26]
  MIC: 0.125 µg/mL (≈ 0.358 µM)
[27]
  MIC: 0.06 µg/mL (≈ 0.172 µM)
[28]
  MIC50: 0.25 µg/mL (≈ 0.715 µM)
  MIC90: 0.25 µg/mL (≈ 0.715 µM)
[29]
  MIC: ≤ 0.016 µg/mL
[30]
  MIC: 0.06 µg/mL (≈ 0.172 µM)
[31]
  MIC: 0.5 µg/mL (≈ 1.43 µM)
[32]
  MIC: 0.03 µg/mL (≈ 0.0858 µM)
  MIC50: 0.06 µg/mL (≈ 0.172 µM)
[33]
  MIC: 0.06 µg/mL (≈ 0.172 µM)
[34]
  MIC50: 0.125 µg/mL (≈ 0.358 µM)
  MIC90: 0.25 µg/mL (≈ 0.715 µM)
[35]
  MIC: 0.03 µg/mL (≈ 0.0858 µM)
[36]
  MIC: 0.125 µg/mL (≈ 0.358 µM)
  MIC50: 0.125 µg/mL (≈ 0.358 µM)
  MIC90: 0.25 µg/mL (≈ 0.715 µM)
[37]
  MIC: 0.03 µg/mL (≈ 0.0858 µM)
[38]
  MIC: 0.125 µg/mL (≈ 0.358 µM)
[39]
  MIC: 0.5 µg/mL (≈ 1.43 µM)
[40]
  MIC50: 0.5 µg/mL (≈ 1.43 µM)
  MIC90: 0.5 µg/mL (≈ 1.43 µM)
[41]
  MIC: 1 µg/mL (≈ 2.86 µM)
[42]
  MIC50: 0.5 µg/mL (≈ 1.43 µM)
  MIC90: 2 µg/mL (≈ 5.72 µM)
[43]
  MIC: 0.25 µg/mL (≈ 0.715 µM)
  MIC50: 0.25 µg/mL (≈ 0.715 µM)
[44]
  MIC: 2 µg/mL (≈ 5.72 µM)
[45]
  MIC50: 0.25 µg/mL (≈ 0.715 µM)
  MIC90: 1 µg/mL (≈ 2.86 µM)
[46]
  MIC50: 2 µg/mL (≈ 5.72 µM)
  MIC90: 4 µg/mL (≈ 11.4 µM)
[47]
  MIC: ≤ 0.016 µg/mL
[48]
  MIC50: 0.125 µg/mL (≈ 0.358 µM)
  MIC90: 0.25 µg/mL (≈ 0.715 µM)
[49]
  MIC50: 0.125 µg/mL (≈ 0.358 µM)
  MIC90: 0.25 µg/mL (≈ 0.715 µM)
[50]
  MIC: 0.03 µg/mL (≈ 0.0858 µM)
  MIC50: 0.06 µg/mL (≈ 0.172 µM)
[51]
  MIC50: 0.06 µg/mL (≈ 0.172 µM)
  MIC90: 0.125 µg/mL (≈ 0.358 µM)
[52]
  MIC: 1 µg/mL (≈ 2.86 µM)
  MIC50: 1 µg/mL (≈ 2.86 µM)
[53]
  MIC50: > 8 µg/mL
  MIC90: > 8 µg/mL
[54]
  MIC: 0.06 µg/mL (≈ 0.172 µM)
